Measurements reported in patent US9623123B2, “Fluorescent conjugated polymers with a bodipy-based backbone and uses thereof” (Michigan Technological University, priority 2008, dated 2017).

Key:
[1] = Fluorescence lifetime measurement; assay type: physicochemical
Method: (§1) ^1H NMR and ^13C NMR spectra were taken on a 400 MHz Varian Unity Inova spectrophotometer instrument. ^1H and ^13C NMR spectra were recorded in CDCl3, and chemical shifts (5) are given in ppm relative to solvent peaks (at 7.24 ppm for ^1H spectra and at 77.3 for ^13C spectra) as internal standard. UV spectra were taken on a Hewlett-Packard 8452A Diode Array UV-visible spectrophotometer. Fluorescence spectra were recorded on a Spex Fluorolog 1681 0.22 m steady-state fluorometer. Fluorescence quantum yields of BODIPY dyes and polymers were measured in methylene chloride and calculated by using fluorescein excited at 490 nm in 0.1 N NaOH as the reference (its quantum efficiency of 85%). Fluorescence lifetimes were measured on a GL-3300 Nitrogen Laser laserstrobe PTI instrument and analyzed using FeliX32 software.
^1H NMR and ^13C NMR spectra were taken on a 400 MHz Varian Unity Inova spectrophotometer instrument. ^1H and ^13C NMR spectra were recorded in CDCl3, and chemical shifts (δ) are given in ppm relative to solvent peaks (^1H, δ 7.26; ^13C, δ 77.3) as internal standard. UV spectra were taken on a Hewlett-Packard 8452A Diode Array UV-visible spectrophotometer. Fluorescence spectra were recorded on a Spex Fluorolog 1681 0.22 m steady-state fluorometer. Fluorescence quantum yields of BODIPY dyes and polymers were measured in methylene chloride and calculated by using fluorescein exCIted at 490 nm in 0.1 N NaOH as the reference (quantum effiCIency, cPn=85%). Fluorescence lifetimes were measured on a 010-3300 Nitrogen Laser laserstrobe PTI instrument and analyzed using FeliX32 software. Molecular weights of the polymers were determined by gel permeation chromatography (OPC) by using a Waters AssoCIates model 6000A liquid chromatograph. Three American Polymer Standards Corp. ultrastyragel columns in series with porosity indices of 103, 104, and 105 A were used and housed in an oven thermostatted at 30° C. The mobile phase was HPLC grade THF which was filtered and degassed by vacuum filtration through a 0.5, urn fluoropore filter prior to use. The polymers were detected by a Waters Model 440 ultraviolet absorbance detector at a wavelength of 254 nm and a Waters Model 2410 refractive index detector. Molecular weights were determined relative to polystyrene standards.

[2] = UV-visible absorption and fluorescence spectra, fluorescence quantum yields in solution; assay type: physicochemical; conditions: for Quantum yield: methylene chloride solution
Method: ^1H NMR and ^13C NMR spectra were taken on a 400 MHz Varian Unity Inova spectrophotometer instrument. ^1H and ^13C NMR spectra were recorded in CDCl3, chemical shifts (δ) are given in ppm relative to solvent peaks (1H: δ 7.26; 13C: δ 77.3) as internal standard. UV spectra were taken on a Hewlett Packard 8452A Diode Array UV-visible spectrophotometer. Fluorescence spectra were recorded on a Spex Fluorolog 1681 0.22 m steady-state fluorometer. Fluorescence quantum yields of BODIPY dyes and polymers were measured in methylene chloride and DMF, and calculated by using fluorescein excited at 490 nm in 0.1 N NaOH as the reference absolute quantum efficiency (φn=85%). Molecular weights of the polymers were determined by gel permeation chromatography (“GPC”) by using a Waters Associates Model 6000A liquid chromatograph. Three American Polymer Standards Corp. Ultrastyragel columns in series with porosity indices of 10^3, 10^4, and 10^5 Å were used and housed in an oven thermostated at 30° C. Mobile phase was HPLC grade THF which was filtered and degassed by vacuum filtration through a 0.5 μm fluoropore filter prior to use. The polymers were detected by a Waters Model 440 ultraviolet absorbance detector at a wavelength of 254 nm and a Waters Model 2410 refractive index detector. Molecular weights were measured relative to polystyrene standards. An Enraf Nonius CAD-4 X-Ray diffractometer was used in the crystal structure determination. The windows program WinGX was used as the interface for the solution and refinement of the model. The data were first reduced and corrected for absorption using the psi-scans, and then solved using the program SIR2004. The model was refined using SHELXL97.
as §1
^1H NMR and ^13C NMR spectra were taken on a 400 MHz Varian Unity Inova spectrophotometer instrument. ^1H and ^13C NMR spectra were recorded in CDCl3, chemical shifts (δ) are given in ppm relative to solvent peaks (^1H: δ 7.26; ^13C: δ 77.3) as internal standard. UV spectra were taken on a Hewlett Packard 8452A Diode Array UV-visible spectrophotometer. Fluorescence spectra were recorded on a Spex Fluorolog 1681 0.22 m steady-state fluorometer. Fluorescence quantum yields of BODIPY dyes and polymers were measured in methylene chloride and DMF, and calculated by using fluorescein excited at 490 nm in 0.1 N NaOH as the reference quantum efficiency (φn=85%).^30,31 Molecular weights of the polymers were determined by gel permeation chromatography (GPC) by using a Waters Associates Model 6000A liquid chromatograph. Three American Polymer Standards Corp. Ultrastyragel columns in series with porosity indices of 10^3, 10^4, and 10^5 Å were used and housed in an oven thermostated at 30° C. Mobile phase was HPLC grade THF which was filtered and degassed by vacuum filtration through a 0.5 μm fluoropore filter prior to use. The polymers were detected by a Waters Model 440 ultraviolet absorbance detector at a wavelength of 254 nm and a Waters Model 2410 refractive index detector. Molecular weights were measured relative to polystyrene standards. […]

[3] = methylene chloride solution (Table 9, Example 13)
[4] = fluorescein standard (Table 9, Example 13)
[5] = methylene chloride solution (Table 10, Example 14)
[6] = fluorescein standard (Table 10, Example 14)

Fluorescence lifetime [1, 3] [ns]	Absorption maxima [2, 3] [nm]	Emission maxima [2, 3] [nm]	Stokes shift [2, 3] [nm]	Quantum yield [2, 4] [%]	Fluorescence lifetime [1, 5] [ns]	Absorption maxima [2, 5] [nm]	Emission maxima [2, 5] [nm]	Quantum yield [2, 6] [%]	SMILES
0.19	535	550	15	2.3					CCCCCCCCCCCCOc1cc(C2=C3C(C)=C(I)C(C)=[N+]3[B-](F)(F)n3c(C)c(I)c(C)c32)cc(OCCCCCCCCCCCC)c1OCCCCCCCCCCCC [Compound 4c]
0.21	533	548	15	2.3	0.13	533	548	5.8	CCCCCCCCCCCCOc1ccc(C2=C3C(C)=C(I)C(C)=[N+]3[B-](F)(F)n3c(C)c(I)c(C)c32)cc1 [Compound 4a]
4.1	502	510	8		4.1	502	511	81	CCCCCCCCCCCCOc1ccc(C2=C3C(C)=CC(C)=[N+]3[B-](F)(F)n3c(C)cc(C)c32)cc1OCCCCCCCCCCCC [Compound 3b]
